Tested on: bananas
Assay: Example 1: bananas bagged at harvest, shipped, ethylene-ripened, exposed 12 hr to MCP, stored at approx. 20° C.; sugar spots, color, shelf life
Format: in vivo, Musa
Design: key to Sugar Spot Ratings: 0 = no spots, 1 = few, 2 = moderate, 3 = severe spots (group average)
Excerpt: Each cluster of bananas was rated daily for sugar spots. Clusters were rated using the following scale:
0=no spots; 1=few spots; 2=moderate spots; 3=severe spots
Clusters with rating of 0-1 are commercially desirable to consumers. Clusters with ratings of 2-3 are unacceptable to consumers. In the results below, the average rating for all the clusters in a given treatment group is reported.
The color of banana peels is rated according to a seven stage rating scale: stage 1 (dark green); stage 2 (all light green); stage 3 (half green and half yellow); stage 4 (more yellow than green); stage 5 (green tips and necks); stage 6 (all yellow; maybe light green necks, no green tips); stage 7 (yellow flecked with brown). Consumers generally prefer to eat bananas in stage 5 or stage 6.
Bananas were harvested in Columbia and placed in bags. Three types of bags were used: • (1) non-MAP polymeric film bag, sized to hold 18 kg of bananas (“poly liner”). Each bag has two or more holes, each with diameter of approximately 20 mm or larger. • (2) non-MAP polymeric film bag with 44 large holes (hole diameter 10 mm), sized to hold 1.4 kg of bananas (“T-bag”); and • (3) MAP bag (as described above), sized to hold about 1.4 kg of bananas.
The appropriate weight of bananas was placed in each type of bag after harvest and prior to shipment. Bags were placed in standard cardboard carrying devices. Bananas then were shipped to Philadelphia, Pa., where they were exposed to ethylene using a standard 4 day ripening schedule. Standard commercial methods of shipment and exposure to ethylene were used.
The Test Protocol that was used was as follows. 312 MAP bags were packed. Each bag held approximately 1.4 kg (3 lb) of bananas. Thirteen such bags were packed in each box. Total weight of bananas in MAP bags was approximately 432 kg. Approximately 216 kg of bananas were placed into poly liners, which were placed into boxes identical to those used for the MAP bags. Approximately 216 kg of bananas were placed into T bags, which were placed into boxes identical to those used for the MAP bags. The gross fruit weight of the each box was approximately 19.5 kg (43 lb).
Banana heads (industry nomenclature is rasimo) were harvested at 14 weeks of age (typical for US markets). Heads were cut into large, medium and small hands. The hands were washed in chlorinated water tanks. The washed hands were further broken into clusters. Clusters were packed into bags that each held approximately 1.4 kg (3 lb) or bags that each held approximately 18 kg (40 lb). Bags were placed into standard cardboard boxes, and each box held approximately 18-20 kg. Each box had 8 round holes of diameter 40 mm, plus two larger oval holes that also served as hand-holds for carrying.
The MAP-packaged bananas were packaged as follows: Clusters of approximately 1.4 kg were carefully placed into microperforated bags, and the bags were sealed by twisting the open side of the bag, folding down the twisted end, and placing a rubber band around the twisted and folded end of the bag.
All bananas were quickly cooled to 13.3° C. and held at that temperature for shipping. During shipping, air ventilation was approximately 15%.
Bags were not opened during shipping or ripening. Temperature was monitored in some of the bags by placing a temperature probe in one banana in that bag prior to sealing.
Bananas were ripened in forced-air ripening rooms as follows. On day 1, bananas were kept at 18° C. (64° F.) and exposed to exogenous ethylene (150 ppm for 24 hours). No further exogenous ethylene was used. After day 1, bananas were kept at 18° C. for two days and then at 10° C. for one day. The temperatures given are pulp temperatures and not room temperatures. Humidity was 85% to 95%.
Bananas were then shipped to Spring House, Pa. Bananas arrived at color stage 2.5-3. The bananas were randomly divided into treatment sets as follows: […]

CC1=CC1 [1-MCP, 1-methylcyclopropene]
additional shelf life (1-MCP alone (no MAP)): 1 to 2 days
Sugar Spot Ratings (MAP, 300 ppb MCP, Day 0): 0
Sugar Spot Ratings (MAP, 300 ppb MCP, Day 1): 0
Sugar Spot Ratings (MAP, 300 ppb MCP, Day 2): 0.00
Sugar Spot Ratings (MAP, 300 ppb MCP, Day 3): 0.19
Sugar Spot Ratings (MAP, 300 ppb MCP, Day 4): 0.53
Sugar Spot Ratings (MAP, 300 ppb MCP, Day 5): 0.92
Sugar Spot Ratings (MAP, 300 ppb MCP, Day 6): 1.61
Sugar Spot Ratings (MAP, 1000 ppb MCP, Day 0): 0
Sugar Spot Ratings (MAP, 1000 ppb MCP, Day 1): 0
Sugar Spot Ratings (MAP, 1000 ppb MCP, Day 2): 0.11
Sugar Spot Ratings (MAP, 1000 ppb MCP, Day 3): 0.22
Sugar Spot Ratings (MAP, 1000 ppb MCP, Day 4): 0.56
Sugar Spot Ratings (MAP, 1000 ppb MCP, Day 5): 1.56
Sugar Spot Ratings (MAP, 1000 ppb MCP, Day 6): 1.89
Sugar Spot Ratings (T bags, 300 ppb MCP, Day 0): 0
Sugar Spot Ratings (T bags, 300 ppb MCP, Day 1): 0
Sugar Spot Ratings (T bags, 300 ppb MCP, Day 2): 0
Sugar Spot Ratings (T bags, 300 ppb MCP, Day 3): 0.94
Sugar Spot Ratings (T bags, 300 ppb MCP, Day 4): 2.44
Sugar Spot Ratings (T bags, 300 ppb MCP, Day 5): 2.78
Sugar Spot Ratings (T bags, 1000 ppb MCP, Day 0): 0
Sugar Spot Ratings (T bags, 1000 ppb MCP, Day 1): 0
Sugar Spot Ratings (T bags, 1000 ppb MCP, Day 2): 0
Sugar Spot Ratings (T bags, 1000 ppb MCP, Day 3): 0.44
Sugar Spot Ratings (T bags, 1000 ppb MCP, Day 4): 2.06
Sugar Spot Ratings (T bags, 1000 ppb MCP, Day 5): 2.61
visual quality maintained beyond the standard handling method (combined treatment 1-MCP and MAP): 10 days
Sugar Spot Ratings (poly liner, 300 ppb MCP, Day 0): 0
Sugar Spot Ratings (poly liner, 300 ppb MCP, Day 1): 0
Sugar Spot Ratings (poly liner, 300 ppb MCP, Day 2): 0.06
Sugar Spot Ratings (poly liner, 300 ppb MCP, Day 3): 0.33
Sugar Spot Ratings (poly liner, 300 ppb MCP, Day 4): 2.17
Sugar Spot Ratings (poly liner, 300 ppb MCP, Day 5): 2.89
Sugar Spot Ratings (poly liner, 1000 ppb MCP, Day 0): 0
Sugar Spot Ratings (poly liner, 1000 ppb MCP, Day 1): 0
Sugar Spot Ratings (poly liner, 1000 ppb MCP, Day 2): 0.00
Sugar Spot Ratings (poly liner, 1000 ppb MCP, Day 3): 0.33
Sugar Spot Ratings (poly liner, 1000 ppb MCP, Day 4): 2.67
Sugar Spot Ratings (poly liner, 1000 ppb MCP, Day 5): 2.89
